According to patent publication US6875761B2 (Eisai Co., Ltd., priority 1997, dated 2005):
Counter-ions that a name gives are not always drawn.

Compound	melting point
CCN1CCN(c2nc(-c3ccc(O[C@@H](C)CO)cc3)cc3ccsc23)CC1 (as salt: hydrochloride) [Example 438, 7-(4-ethylpiperazin-1-yl)-5-[4-(1-methyl-2-hydroxyethoxy)phenyl]thieno[2,3-c]pyridine dihydrochloride]	126 to 127 °C
CCN1CCN(c2nc(-c3ccc(CCC(C)(C)O)cc3)cc3ccsc23)CC1 (as salt: hydrochloride) [Example 439, 7-(4-ethylpiperazin-1-yl)-5-[4-(3-hydroxy-3-methylbutyl)phenyl]thieno[2,3-c]pyridine dihydrochloride]	122 to 133.5 °C
CCN1CCN(c2nc(-c3ccc(CCC(C)O)cc3)cc3ccsc23)CC1 (stereo not shown) (as salt: hydrochloride) [Example 440, 7-(4-ethylpiperazin-1-yl)-5-[4-(3-hydroxybutyl)phenyl]thieno[2,3-c]pyridine dihydrochloride]	110.5 to 112 °C
CCN1CCN(c2nc(-c3ccc(CC(C)CO)cc3)cc3ccsc23)CC1 (stereo not shown) (as salt: hydrochloride) [Example 441, 7-(4-ethylpiperazin-1-yl)-5-[4-(3-hydroxy-2-methylpropyl)phenyl]thieno[2,3-c]pyridine dihydrochloride]	108 to 110 °C
CCN1CCN(c2nc(-c3ccc(CC(C)(C)CO)cc3)cc3ccsc23)CC1 (as salt: hydrochloride) [Example 442, 7-(4-ethylpiperazin-1-yl)-5-[4-(3-hydroxy-2,2-dimethylpropyl)phenyl]thieno[2,3-c]pyridine dihydrochloride]	113 to 114 °C
CCN1CCN(c2nc(-c3ccc(C(C)(C)CCO)cc3)cc3ccsc23)CC1 (as salt: hydrochloride) [Example 443, 7-(4-ethylpiperazin-1-yl)-5-[4-(3-hydroxy-1,1-dimethylpropyl)phenyl]thieno[2,3-c]pyridine dihydrochloride]	125.5 to 127.5 °C
CCN1CCN(c2nc(-c3ccc(SC[C@@H](C)O)cc3)cc3ccsc23)CC1 (as salt: hydrochloride) [Example 444, 7-(4-ethylpiperazin-1-yl)-5-[4-(2-hydroxypropylthio)phenyl]thieno[2,3-c]pyridine dihydrochloride]	98.5 to 99.5 °C
CCN1CCN(c2nc(-c3ccc(S(C)(=O)=O)cc3)cc3ccsc23)CC1 (as salt: hydrochloride) [Example 445, 7-(4-ethylpiperazin-1-yl)-5-(4-methanesulfonylphenyl)thieno)[2,3-c]pyridine dihydrochloride]	222.5 to 225 °C (dec.)
CCCC(O)c1ccc(-c2cc3ccsc3c(N3CCN(CC)CC3)n2)cc1 (stereo not shown) (as salt: hydrochloride) [Example 446, 7-(4-ethylpiperazin-1-yl)-5-[4-(1-hydroxybutyl)phenyl]thieno[2,3-c]pyridine dihydrochloride]	112 to 114 °C
CCNC(=O)c1ccc(-c2cc3ccsc3c(N3CCN(CC)CC3)n2)cc1 (as salt: hydrochloride) [Example 448, 7-(4-ethylpiperazin-1-yl)-5-[4-(N-ethylcarbamoyl)phenyl]thieno[2,3-c]pyridine dihydrochloride]	142 to 143 °C
CCCNC(=O)c1ccc(-c2cc3ccsc3c(N3CCN(CC)CC3)n2)cc1 (as salt: hydrochloride) [Example 449, 7-(4-ethylpiperazin-1-yl)-5-[4-(N-propylcarbamoyl)phenyl]thieno[2,3-c]pyridine dihydrochloride]	136.5 to 138 °C
CCN1CCN(c2nc(-c3ccc(S(=O)(=O)CC)cc3)cc3ccsc23)CC1 (as salt: hydrochloride) [Example 450, 7-(4-ethylpiperazin-1-yl)-5-(4-ethanesulfonylphenyl)thieno[2,3-c]pyridine dihydrochloride]	230 to 232 °C (dec.)
CCCCNC(=O)c1ccc(-c2cc3ccsc3c(N3CCN(CC)CC3)n2)cc1 (as salt: hydrochloride) [Example 452, 7-(4-ethylpiperazin-1-yl)-5-[4-(N-butylcarbamoyl)phenyl]thieno[2,3-c]pyridine dihydrochloride]	127.5 to 128 °C
CCN1CCN(c2nc(-c3ccc(C(=O)NC4CCCC4)cc3)cc3ccsc23)CC1 (as salt: hydrochloride) [Example 453, 7-(4-ethylpiperazin-1-yl)-5-[4-(N-cyclopentylcarbamoyl)phenyl]thieno[2,3-c]pyridine dihydrochloride]	148 to 149 °C
CCN1CCN(c2nc(-c3ccc4c(c3)CC(C)(CO)O4)cc3ccsc23)CC1 (stereo not shown) (as salt: hydrochloride) [Example 456, dihydrochloride]	138 to 140 °C (dec.)
CCN1CCN(c2nc(-c3ccc(C(O)C4CCCCC4)cc3)cc3ccsc23)CC1 (stereo not shown) (as salt: hydrochloride) [Example 457, 7-(4-Ethylpiperazin-1-yl)-5-[4-(cyclohexylhydroxymethyl)phenyl]thieno[2,3-c]pyridine dihydrochloride]	127.5 to 129 °C
CCN1CCN(c2nc(-c3ccc(C(O)C4CCCC4)cc3)cc3ccsc23)CC1 (stereo not shown) (as salt: hydrochloride) [Example 458, 7-(4-ethylpiperazin-1-yl)-5-[4-(cyclopentylhydroxymethyl)phenyl]thieno[2,3-c]pyridine dihydrochloride]	128 to 129 °C
CCN1CCN(c2nc(-c3ccc(OC)cc3)cc3ccsc23)CC1 (as salt: hydrochloride) [Example 459, 7-(4-ethylpiperazin-1-yl)-5-(4-methoxyphenyl)thieno[2,3-c]pyridine dihydrochloride]	113 to 115 °C
CCN1CCN(c2nc(-c3ccc(OCCCO)cc3)cc3sccc23)CC1 (as salt: hydrochloride) [Example 462, 4-(4-ethylpiperazin-1-yl)-6-[4-(3-hydroxypropoxy)phenyl]thieno[3,2-c]pyridine dihydrochloride]	102 to 104 °C
CCN1CCN(c2nc(-c3ccc(CCCO)cc3)cc3sccc23)CC1 (as salt: hydrochloride) [Example 465, 4-(4-ethylpiperazin-1-yl)-6-[4-(3-hydroxypropy)phenyl]thieno[3,2-c]pyridine dihydrochloride]	125.5 to 126.5 °C

Compound	melting point
CCN1CCN(c2nc(-c3ccc(OC)cc3)cc3ccoc23)CC1 (as salt: hydrochloride) [Example 467, 7-(4-ethylpiperazin-1-yl)-5-(4-methoxyphenyl)furo[2,3-c]pyridine dihydrochloride]	127 to 128 °C
CCN1CCN(c2nc(C(O)c3ccccc3OC)cc3ccccc23)CC1 (stereo not shown) (as salt: oxalate)	100 to 103 °C
CCN1CCN(c2nc(C(C)(O)c3ccc(OC)cc3)cc3ccccc23)CC1 (stereo not shown) (as salt: oxalate)	179 to 181 °C
CCN1CCN(c2nc(C3=CCCc4c(OC)cccc43)cc3ccccc23)CC1 (as salt: oxalate)	136 to 139 °C
CCN1CCN(c2nc(C3=CCCc4ccc(OC)cc43)cc3ccccc23)CC1 (as salt: oxalate)	150 to 153 °C
CCN1CCN(c2nc(C3CCCc4c(OC)cccc43)cc3ccccc23)CC1 (stereo not shown) (as salt: oxalate)	133 to 136 °C
CCN1CCN(c2nc(C3CCCc4cc(OC)ccc43)cc3ccccc23)CC1 (stereo not shown) (as salt: oxalate)	170 to 173 °C
CCN1CCN(c2nc(C3CCCc4ccc(OC)cc43)cc3ccccc23)CC1 (stereo not shown) (as salt: oxalate)	110 to 112 °C
CCNS(=O)(=O)c1ccc(-c2cc3ccccc3c(N3CCN(CCO)CC3)n2)cc1 (as salt: oxalate)	172 to 174 °C
CCCS(=O)(=O)c1ccc(-c2cc3ccccc3c(N3CCN(CCO)CC3)n2)cc1 (as salt: oxalate)	127 to 129 °C
CCN1CCN(c2nc(-c3ccc(OC)cc3)cc3occc23)CC1 (as salt: oxalate)	170 to 172 °C (dec.)
CCCC(O)c1ccc(-c2cc3ccccc3c(N3CCN(CC)CC3)n2)cc1 (stereo not shown) (as salt: oxalate) [Example 21, 1-(4-ethylpiperazin-1-yl)-3-[4-(1-hydroxybutyl)phenyl]isoquinoline oxalate]	198.5 to 199.5 °C
CCN1CCN(c2nc(-c3ccc(CCC(C)O)cc3)cc3ccccc23)CC1 (stereo not shown) (as salt: oxalate) [Example 22, 1-(4-ethylpiperazin-1-yl)-3-[4-(3-hydroxybutyl)phenyl]isoquinoline oxalate]	193 to 194 °C
CCN1CCN(c2nc(C(C)c3ccc(OC)cc3)cc3ccccc23)CC1 (stereo not drawn) (as salt: oxalate) [Example 102, 3-[α-Methyl-(4-methoxybenzyl)]-1-(4-ethylpiperazin-1-yl)isoquinoline Oxalate]	86 to 88 °C
CCN1CCN(c2nc(C(O)c3ccc(OC)cc3)cc3ccccc23)CC1 (stereo not drawn) (as salt: oxalate) [Example 104, 3-[α-Hydroxy-(4-methoxybenzyl)]-1-(4-ethylpiperazin-1-yl)isoquinoline Oxalate]	95 to 97 °C
CCN1CCN(c2nc(C(=O)c3ccccc3OC)cc3ccccc23)CC1 (as salt: oxalate) [Example 111, 3-(2-Methoxyphenylcarbonyl)-1-(4-ethylpiperazin-1-yl)isoquinoline Oxalate]	153 to 156 °C
CCN1CCN(c2nc(C(=O)c3ccc(OC)cc3)cc3ccccc23)CC1 (as salt: oxalate) [Example 112, 3-(4-Methoxyphenylcarbonyl)-1-(4-ethylpiperazin-1-yl)isoquinoline Oxalate]	176 to 179 °C
CCN1CCN(c2nc(C3CCc4ccc(OC)cc43)cc3ccccc23)CC1 (stereo not shown) (as salt: oxalate) [Example 114, 3-(6-Methoxyindan-1-yl)-1-(4-ethylpiperazin-1-yl)isoquinoline Oxalate]	122 to 124 °C
CCN1CCN(c2nc(C3=CCCc4cc(OC)ccc43)cc3ccccc23)CC1 (as salt: oxalate) [Example 117, 3-(7-Methoxy-1,2-dihydronaphthalen-4-yl)-1-(4-ethylpiperazin-1-yl)isoquinoline Oxalate]	112 to 114 °C
CCN1CCN(c2nc(-c3ccc(C4=CCOCC4)nc3)cc3ccccc23)CC1 (as salt: oxalate) [Example 155, 3-[2-(5,6-dihydro-2H-pyran-4-yl)pyridin-5-yl]-1-(4-ethylpiperazin-1-yl)isoquinoline oxalate]	156 to 159 °C
